Read-outs that look alike come from different tables or passages of the source.
Columns and labels:
clinical [1] = conditions: human, in vivo, oral
Source text: No premedication was allowed during this treatment sequence.

clinical [2] = conditions: human, in vivo
Procedure: (§1) A 2-part study was conducted in subjects with advanced/metastatic or recurrent gastric cancer. […] A total of 56 subjects enrolled in this study: 10 subjects with advanced malignant tumors in Part 1 and 46 subjects with advanced gastric cancer in Part 2.

[3] = human, in vivo
Procedure: as §1

[4] = Paclitaxel pharmacokinetics in dogs after single oral dose with Compound A; conditions: dog, in vivo
[5] = Paclitaxel pharmacokinetics in rats after single oral dose with Compound A; conditions: rat, in vivo
[6] = test system: transplanted human tumor cell lines; experiment: Seven in vivo experiments, human tumor transplant cell lines in mice (overall); set-up: species or system mouse; conditions: paclitaxel administered IP or IV, compared with oral combination
Procedure: In these studies, tumor inhibition rate (IR %) was calculated as ([1-relative tumor growth in treated group/relative tumor growth in control group]×100). Tumor regression was calculated as (Mean Tumor WeightEnd of treatment/Mean tumor WeightBeginning of treatment)×100. Therefore, a value <100% for tumor regression indicates a decrease in tumor weight over the course of the study and a value >100% indicates an increase in tumor weight. Tumor growth delay was calculated as the median number of days to reach two tumor mass doublings.

in vivo = conditions: dog, po, 6 mg/kg, paclitaxel 6 mg/kg with Compound A 3 mg/kg, single oral dose; for AUC(0-t): AUClast; for half-life: t1/2, dogs
[7] = for CL/F: po
[8] = dogs; for CL/F: paclitaxel 6 mg/kg with Compound A 3 mg/kg, single oral dose
clinical [9] = conditions: human, in vivo; remark: listed apart in the source
[10] = CNS safety pharmacology study in rats; type: in vivo, rat; conditions: Compound A administered alone
[11] = Cardiovascular safety pharmacology in dogs; type: in vivo, dog; conditions: Compound A administered alone

CC(=O)O[C@H]1C(=O)[C@@]2(C)[C@H]([C@H](OC(=O)c3ccccc3)[C@]3(O)C[C@H](OC(=O)[C@H](O)[C@@H](NC(=O)c4ccccc4)c4ccccc4)C(C)=C1C3(C)C)[C@]1(OC(C)=O)CO[C@@H]1C[C@@H]2O [Paclitaxel, 5,20-Epoxy-1,2,4,7,10-13-hexahydroxytax-11-en-9-one-4,10-diacetate 2-benzoate 13-ester with (2R,3S)—N-benzoyl-3-phenylisoserine]
bioavailability (clinical [1]): ~13.4%
half-life (clinical [2]; oral): 18.3 to 19.7 h
AUC(0-t) (clinical [2]; oral, AUC0-24, range across dose levels, Day 1): 611 to 894 ng·h/mL
AUC(0-t) (clinical [2]; oral, AUC0-24, range across dose levels, Day 2): 735 to 1080 ng·h/mL
Cmax (clinical [2]; oral, Cmax, range across dose levels, Day 1): 202 to 280 ng/mL
Cmax (clinical [2]; oral, Cmax, range across dose levels, Day 2): 159 to 315 ng/mL
Cmax (clinical [2]; po, 90 mg/m2, Paclitaxel Cmax, Mean (SD), 90 mg/m^2, Day 1, N 2, two consecutive daily oral doses): 202 ng/mL
Cmax (clinical [2]; po, 90 mg/m2, Paclitaxel Cmax, Mean (SD), 90 mg/m^2, Day 2, N 2, two consecutive daily oral doses): 315 ng/mL
Cmax (clinical [2]; po, 120 mg/m2, Paclitaxel Cmax, Mean (SD), 120 mg/m^2, Day 2, N 3, two consecutive daily oral doses): 159 ng/mL
AUC(0-t) (clinical [2]; po, 150 mg/m2): 894 ng·h/mL
Cmax (clinical [2]; po, 150 mg/m2): 251 ng/mL
Cmax (clinical [2]; po, 150 mg/m2, Paclitaxel Cmax, Mean (SD), 150 mg/m^2, Day 2, N 3, two consecutive daily oral doses): 276 ng/mL
Overall exposure on Day 2, higher than Day 1 [3]: 20-30%
AUC(0-t) ([4]; 2 mg/kg): 413 ng·h/mL
Tmax ([4]; 2 mg/kg): 0.5 h
AUC(0-t) ([4]; 4 mg/kg): 1330 ng·h/mL
Tmax ([4]; 4 mg/kg): 0.7 h
AUC(0-t) ([4]; 6 mg/kg): 2120 ng·h/mL
Tmax ([4]; 6 mg/kg): 0.5 h
AUC(0-t) ([5]; 5 mg/kg): 333 ng·h/mL
Cmax ([5]; 5 mg/kg): 103 ng/mL
Tmax ([5]; 5 mg/kg): 0.6 h
AUC(0-t) ([5]; 10 mg/kg): 1030 ng·h/mL
Cmax ([5]; 10 mg/kg): 356 ng/mL
Tmax ([5]; 10 mg/kg): 0.7 h
AUC(0-t) ([5]; 20 mg/kg): 3010 ng·h/mL
Cmax ([5]; 20 mg/kg): 852 ng/mL
Tmax ([5]; 20 mg/kg): 1.2 h
AUC(0-t) ([5]; 30 mg/kg): 6640 ng·h/mL
Cmax ([5]; 30 mg/kg): 1760 ng/mL
Tmax ([5]; 30 mg/kg): 1.2 h
half-life ([5]; 30 mg/kg): 6 h
AUC(0-t) ([5]; 40 mg/kg): 11100 ng·h/mL
Cmax ([5]; 40 mg/kg): 2490 ng/mL
Tmax ([5]; 40 mg/kg): 1.5 h
half-life ([5]; 40 mg/kg): 5.5 h
AUC(0-t) ([5]; 50 mg/kg): 13100 ng·h/mL
Cmax ([5]; 50 mg/kg): 3070 ng/mL
half-life ([5]; 50 mg/kg): 5.3 h
activity against transplanted human tumor cell lines [6]: generally less active
AUC(0-t) (in vivo; dogs, Fasted): 1600 ± 416 ng·h/mL
AUC(0-t) (in vivo; dogs, Fed): 849 ± 120 ng·h/mL
Cmax (in vivo; Cmax, dogs, Fed): 299 ± 54.6 ng/mL
Tmax (in vivo; dogs, Fasted): 0.5 h
Tmax (in vivo; dogs, Fed): 0.7 ± 0.2 h
Vd/F (in vivo; dogs, Fasted): 57.9 ± 17.4 L
Vd/F (in vivo; dogs, Fed): 88 ± 19.6 L
half-life (in vivo; Fasted): 9.4 ± 0.3 h
half-life (in vivo; Fed): 9.9 ± 2.7 h
Mean apparent clearance (CL/F) ([7]; human, in vivo): up to 244.9 L/h
CL/F ([7]; human, in vivo, 60 mg/m2): 178.4 L/h
CL/F ([7]; human, in vivo, 180 mg/m2): 173.4 L/h
CL/F ([7]; human, in vivo, 240 mg/m2): 147.6 L/h
CL/F ([7]; human, in vivo, 360 mg/m2): 228.7 L/h
CL/F ([7]; human, in vivo, 420 mg/m2): 244.9 L/h
MTD ([7]; oral paclitaxel 60 to 420 mg/m^2 on days 1, 8 and 15 of 28-day cycle with Compound A): not reached
overall toxicity profile ([7]; orally administered in combination with Compound A, neutropenia the adverse event associated with discontinuation): consistent with that of paclitaxel
AUC, fasted group compared to fed group [8]: ~2 fold
Cmax, fasted group compared to fed group [8]: ~2 fold
CL/F ([8]; Fasted): 4.2 ± 1.2 L/h
CL/F ([8]; Fed): 6.4 ± 1.3 L/h
half-life (clinical [9]): 19.9 to 32.1 h
AUC(0-inf) (clinical [9]; po, 60 mg/m2): 727 ng·h/mL
AUC(0-t) (clinical [9]; po, 60 mg/m2): 584 ng·h/mL
Cmax (clinical [9]; po, 60 mg/m2): 150 ng/mL
MRT inf (clinical [9]; po, 60 mg/m2): 28.6 h
Vd/F (clinical [9]; po, 60 mg/m2): 9130 L
half-life (clinical [9]; po, 60 mg/m2): 32.1 h
AUC(0-inf) (clinical [9]; po, 120 mg/m2): 1840 ng·h/mL
AUC(0-t) (clinical [9]; po, 120 mg/m2): 1610 ng·h/mL
CL renal (clinical [9]; po, 120 mg/m2): 50 mL/min
MRT inf (clinical [9]; po, 120 mg/m2): 17 h
Vd/F (clinical [9]; po, 120 mg/m2): 4040 L
half-life (clinical [9]; po, 120 mg/m2): 22 h
AUC(0-inf) (clinical [9]; po, 180 mg/m2): 1980 ng·h/mL
AUC(0-t) (clinical [9]; po, 180 mg/m2): 1670 ng·h/mL
CL renal (clinical [9]; po, 180 mg/m2): 30 mL/min
Cmax (clinical [9]; po, 180 mg/m2): 432 ng/mL
MRT inf (clinical [9]; po, 180 mg/m2): 21.9 h
Vd/F (clinical [9]; po, 180 mg/m2): 6030 L
half-life (clinical [9]; po, 180 mg/m2): 24.4 h
AUC(0-inf) (clinical [9]; po, 240 mg/m2): 2970 ng·h/mL
AUC(0-t) (clinical [9]; po, 240 mg/m2): 2550 ng·h/mL
CL renal (clinical [9]; po, 240 mg/m2): 40 mL/min
Cmax (clinical [9]; po, 240 mg/m2): 510 ng/mL
MRT inf (clinical [9]; po, 240 mg/m2): 23.4 h
Vd/F (clinical [9]; po, 240 mg/m2): 6010 L
half-life (clinical [9]; po, 240 mg/m2): 25.7 h
AUC(0-inf) (clinical [9]; po, 300 mg/m2): 3480 ng·h/mL
AUC(0-t) (clinical [9]; po, 300 mg/m2): 3140 ng·h/mL
CL renal (clinical [9]; po, 300 mg/m2): 33.3 mL/min
Cmax (clinical [9]; po, 300 mg/m2): 920 ng/mL
MRT inf (clinical [9]; po, 300 mg/m2): 16.2 h
Vd/F (clinical [9]; po, 300 mg/m2): 4930 L
half-life (clinical [9]; po, 300 mg/m2): 21.2 h
AUC(0-inf) (clinical [9]; po, 360 mg/m2): 2850 ng·h/mL
AUC(0-t) (clinical [9]; po, 360 mg/m2): 2510 ng·h/mL
CL renal (clinical [9]; po, 360 mg/m2): 122 mL/min
MRT inf (clinical [9]; po, 360 mg/m2): 18.7 h
Vd/F (clinical [9]; po, 360 mg/m2): 6840 L
half-life (clinical [9]; po, 360 mg/m2): 20.8 h
AUC(0-inf) (clinical [9]; po, 420 mg/m2): 3730 ng·h/mL
AUC(0-t) (clinical [9]; po, 420 mg/m2): 3410 ng·h/mL
CL renal (clinical [9]; po, 420 mg/m2): 48.3 mL/min
MRT inf (clinical [9]; po, 420 mg/m2): 14.7 h
Vd/F (clinical [9]; po, 420 mg/m2): 7180 L
half-life (clinical [9]; po, 420 mg/m2): 19.9 h

COc1cc2c(cc1OC)CN(CCc1ccc(-n3nnc(-c4cc(OC)c(OC)cc4NC(=O)c4cc(=O)c5ccccc5o4)n3)cc1)CC2.CS(=O)(=O)O.O [Compound A]
reductions in body temperature [10]: absence
reductions in PR and QRS intervals [11]: absence

From patent US20180207148A1 (priority 2015, published 2018)
